Data reported in US20250019371A1, “SMALL-MOLECULAR INHIBITORS FOR THE BETA-CATENIN/ B-CELL LYMPHOMA 9 PROTEIN-PROTEIN INTERACTION” (H. LEE MOFFITT CANCER CENTER AND RESEARCH INSTITUTE, INC., priority 2021, published 2025).
Read-outs that look alike come from different tables or passages of the source. Blank lines part the entries; values can stand above or below the compound they belong to.

Columns and labels:
[1] = target: T1, β-catenin/BCL9 PPI (Homo sapiens, UniProt P35222); experiment: AlphaScreen competitive inhibition assay of β-catenin/BCL9 PPI; assay type: binding; conditions: for Ki: read-out: Ki; for potency relative to compound 12: AlphaScreen Ki compared with 12; for AlphaScreen inhibitory activity in words: SAR comparison
T1 construct: Full-length β-catenin (residues 1-781); host or cells: E. coli BL21 DE3
T1 sequence (P35222 1-781): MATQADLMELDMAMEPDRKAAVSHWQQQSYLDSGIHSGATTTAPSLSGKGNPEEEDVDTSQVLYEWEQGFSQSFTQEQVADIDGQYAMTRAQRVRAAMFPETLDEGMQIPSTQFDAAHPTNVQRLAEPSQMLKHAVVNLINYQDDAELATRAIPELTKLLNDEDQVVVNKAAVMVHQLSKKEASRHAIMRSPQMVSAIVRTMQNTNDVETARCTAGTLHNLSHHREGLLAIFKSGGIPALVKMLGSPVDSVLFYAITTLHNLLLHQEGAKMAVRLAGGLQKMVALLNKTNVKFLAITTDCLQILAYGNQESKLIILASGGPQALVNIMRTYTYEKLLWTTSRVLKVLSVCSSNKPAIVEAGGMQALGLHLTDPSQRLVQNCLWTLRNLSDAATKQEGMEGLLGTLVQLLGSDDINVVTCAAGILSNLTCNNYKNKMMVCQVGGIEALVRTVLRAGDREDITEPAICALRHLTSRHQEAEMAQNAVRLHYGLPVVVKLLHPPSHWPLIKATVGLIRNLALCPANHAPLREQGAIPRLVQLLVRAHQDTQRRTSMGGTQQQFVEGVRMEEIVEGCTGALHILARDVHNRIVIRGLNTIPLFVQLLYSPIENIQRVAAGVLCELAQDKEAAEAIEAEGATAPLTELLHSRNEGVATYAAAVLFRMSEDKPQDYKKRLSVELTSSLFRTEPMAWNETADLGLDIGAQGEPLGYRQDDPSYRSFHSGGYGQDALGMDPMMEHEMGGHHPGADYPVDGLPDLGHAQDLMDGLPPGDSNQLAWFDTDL
Protocol: AlphaScreen Assays of β-Catenin and BCL9 Interaction. Experiments were performed in white opaque 384-well plates from PerkinElmer (Waltham, MA), and the samples were read on a Biotek Synergy 2 plate reader (Winooski, VT) with excitation at 680 nm and emission at 570 nm. The standard AlphaScreen protocol was used with a sensitivity setting of 200. All dilutions were made in 1x assay buffer containing 25 mM Hepes (pH 7.4), 100 mM NaCl, 0.01% Triton X-100 and 0.1% BSA to minimize nonspecific interactions.
For the β-catenin/BCL9 assay, 5 nM biotinylated BCL9, and 50 nM His6-tagged 8-catenin were incubated in assay buffer for 30 min. Different concentrations of the tested inhibitor were added and incubated in 20 μL assay buffer for another 1 h. All of the assay plates were covered and gently mixed on an orbital shaker. Donor and acceptor beads were then added to the plates to a final concentration of 10 μg/mL in 25 μL assay buffer. The mixture was incubated for 1 h before detection. The IC50 value was determined by nonlinear least-square analysis of GraphPad Prism 8.0. […] All of the experiments were performed in triplicate and carried out in the presence of 1% DMSO for small-molecule inhibitors. Each compound was assayed at least by three independent experiments. The results were expressed as mean±standard deviation.

[2] = cell-based experiments, earlier work, cited from earlier work
[3] = first Table 3, AlphaScreen, inhibitors 31-35
[4] = Table 1, AlphaScreen, inhibitors 16-26
[5] = Table 1, AlphaScreen, inhibitors 16-26, Ki derived from IC50
[6] = Table 2, AlphaScreen, inhibitors 27-30 (R- and S-isomers), preliminary

SMILES: CC(C)(Oc1cccc(N2CCC[C@H](C(=O)N(Cc3ccc(-c4cccs4)cc3)C3CC3)C2)c1)C(=O)NS(=O)(=O)C1CC1 [Compound 33]
- IC50 [1, 3]: ≤ 30 µM
- Ki [1, 3]: ≤ 30 µM

SMILES: CC(C)(Oc1cccc(N2CCCC(C(=O)N(Cc3ccc(-c4cccs4)cc3)C3CC3)C2)c1)C(=O)NS(C)(=O)=O (stereo not drawn) [Compound 18, N-Cyclopropyl-1-(3-((2-methyl-1-(methylsulfonamido)-1-oxopropan-2-yl)oxy)phenyl)-N-(4-(thiophen-2-yl)benzyl) piperidine-3-carboxamide]
- potency relative to compound 12 [1]: two-fold less potent than 12
- IC50 [1, 4]: ≤ 30 µM
- Ki [1, 5]: ≤ 30 µM

SMILES: CC(C)(Oc1cccc(N2CCCC(C(=O)N(Cc3ccc(-c4cccs4)cc3)C3CC3)C2)c1)C(=O)NS(=O)(=O)c1ccc(C#N)cc1 (stereo not drawn) [Compound 26, 1-(3-((1-((4-Cyanophenyl)sulfonamido)-2-methyl-1-oxopropan-2-yl)oxy)phenyl)-N-cyclopropyl-N-(4-(thiophen-2-yl)benzyl) piperidine-3-carboxamide]
- IC50 [1, 4]: ≤ 5 µM
- Ki [1, 5]: ≤ 5 µM

SMILES: CC(C)(Oc1cccc(N2CCCC(C(=O)N(Cc3ccc(-c4cccs4)cc3)C3CC3)C2)c1)C(=O)NS(=O)(=O)C1CC1 (stereo not drawn) [Compound 19, 1-(3-((1-(Cyclopropanesulfonamido)-2-methyl-1-oxopropan-2-yl)oxy)phenyl)-N-cyclopropyl-N-(4-(thiophen-2-yl)benzyl) piperidine-3-carboxamide]
- AlphaScreen inhibitory activity in words [1]: improved activities
- IC50 [1, 4]: ≤ 30 µM
- Ki [1, 5]: ≤ 30 µM

SMILES: CC(C)(Oc1cccc(N2CCC[C@@H](C(=O)N(Cc3ccc(-c4cccs4)cc3)C3CC3)C2)c1)C(=O)NS(=O)(=O)c1ccc(C#N)cc1 [Compound 29, (R)-1-(3-((1-((4-Cyanophenyl)sulfonamido)-2-methyl-1-oxopropan-2-yl)oxy)phenyl)-N-cyclopropyl-N-(4-(thiophen-2-yl)benzyl) piperidine-3-carboxamide]
- IC50 [1, 6]: ≤ 5 µM
- Ki [1, 6]: ≤ 5 µM

SMILES: CC(C)(Oc1cccc(N2CCCC(C(=O)N(Cc3ccc(-c4cccs4)cc3)C3CC3)C2)c1)C(=O)NS(=O)(=O)c1cccc(C#N)c1 (stereo not drawn) [Compound 25, 1-(3-((1-((3-Cyanophenyl)sulfonamido)-2-methyl-1-oxopropan-2-yl)oxy)phenyl)-N-cyclopropyl-N-(4-(thiophen-2-yl)benzyl) piperidine-3-carboxamide]
- IC50 [1, 4]: ≤ 10 µM
- Ki [1, 5]: ≤ 10 µM

SMILES: CC(C)(Oc1cccc(N2CCCC(C(=O)N(Cc3ccc(-c4cccs4)cc3)C3CC3)C2)c1)C(=O)NS(=O)(=O)c1ccccc1 (stereo not drawn) [Compound 21, N-Cyclopropyl-1-(3-((2-methyl-1-oxo-1-(phenylsulfonamido)propan-2-yl)oxy)phenyl)-N-(4-(thiophen-2-yl)benzyl) piperidine-3-carboxamide]
- potency relative to compound 12 [1]: two-fold more potent than 12
- AlphaScreen inhibitory activity in words [1]: improved activities
- IC50 [1, 4]: ≤ 10 µM
- Ki [1, 5]: ≤ 10 µM

SMILES: CC(C)(Oc1cccc(N2CCC[C@H](C(=O)N(Cc3ccc(-c4cccs4)cc3)C3CC3)C2)c1)C(=O)NS(=O)(=O)c1cccc(C#N)c1 [Compound 35]
- IC50 [1, 3]: ≤ 10 µM
- Ki [1, 3]: ≤ 10 µM

SMILES: CC(C)(Oc1cccc(N2CCCC(C(=O)N(Cc3ccc(-c4cccs4)cc3)C3CC3)C2)c1)C(=O)NS(=O)(=O)C(F)(F)F (stereo not drawn) [Compound 31]
- IC50 [1, 3]: ~200 µM
- Ki [1, 3]: ~168 µM

SMILES: CC(C)(Oc1cccc(N2CCC[C@@H](C(=O)N(Cc3ccc(-c4cccs4)cc3)C3CC3)C2)c1)C(=O)NS(=O)(=O)C1CC1 [Compound 32]
- IC50 [1, 3]: ≤ 30 µM
- Ki [1, 3]: ≤ 30 µM

SMILES: COC(=O)C(C)(C)Oc1cccc(N2CCCC(C(=O)N(Cc3ccc(-c4cccs4)cc3)C3CC3)C2)c1 (stereo not drawn) [Compound 16, Methyl 2-(3-(3-(cyclopropyl(4-(thiophen-2-yl)benzyl)carbamoyl)piperidin-1-yl)phenoxy)-2-methylpropanoate]
- AlphaScreen inhibitory activity in words [1]: significant potency loss
- IC50 [1, 4]: > 100 µM
- Ki [1, 5]: > 90 µM

SMILES: CC(C)c1ccc(COC(=O)N2CCC[C@@H](c3cccc(OC(C)(C)C(=O)O)c3)C2)cc1 [CP868388]
- cellular activity [2]: inactive in cell-based experiments
- cellular activity ([2]; listed as 1): did not show any cellular activity

SMILES: CC(C)S(=O)(=O)NC(=O)C(C)(C)Oc1cccc(N2CCCC(C(=O)N(Cc3ccc(-c4cccs4)cc3)C3CC3)C2)c1 (stereo not drawn) [Compound 20, N-Cyclopropyl-1-(3-((2-methyl-1-((1-methylethyl)sulfonamido)-1-oxopropan-2-yl)oxy)phenyl)-N-(4-(thiophen-2-yl)benzyl) piperidine-3-carboxamide]
- AlphaScreen inhibitory activity in words [1]: improved activities
- IC50 [1, 4]: ≤ 30 µM
- Ki [1, 5]: ≤ 30 µM

Other lines, results leading:

- IC50 [1, 4]: ≤ 10 µM
- Ki [1, 5]: ≤ 5 µM
SMILES: COc1ccc(S(=O)(=O)NC(=O)C(C)(C)Oc2cccc(N3CCCC(C(=O)N(Cc4ccc(-c5cccs5)cc4)C4CC4)C3)c2)cc1 (stereo not drawn) [Compound 23, N-Cyclopropyl-1-(3-((1-((4-methoxyphenyl)sulfonamido)-2-methyl-1-oxopropan-2-yl)oxy)phenyl)-N-(4-(thiophen-2-yl)benzyl) piperidine-3-carboxamide]

- IC50 [1, 4]: ≤ 10 µM
- Ki [1, 5]: ≤ 5 µM
SMILES: COc1cccc(S(=O)(=O)NC(=O)C(C)(C)Oc2cccc(N3CCCC(C(=O)N(Cc4ccc(-c5cccs5)cc4)C4CC4)C3)c2)c1 (stereo not drawn) [Compound 22, N-Cyclopropyl-1-(3-((1-((3-methoxyphenyl)sulfonamido)-2-methyl-1-oxopropan-2-yl)oxy)phenyl)-N-(4-(thiophen-2-yl)benzyl) piperidine-3-carboxamide]

- IC50 [1, 3]: ≤ 30 µM
- Ki [1, 3]: ≤ 30 µM
SMILES: COc1ccc(S(=O)(=O)NC(=O)C(C)(C)Oc2cccc(N3CCC[C@H](C(=O)N(Cc4ccc(-c5cccs5)cc4)C4CC4)C3)c2)cc1 [Compound 34]

- IC50 [1, 6]: ≤ 10 µM
- Ki [1, 6]: ≤ 5 µM
SMILES: COc1cccc(S(=O)(=O)NC(=O)C(C)(C)Oc2cccc(N3CCC[C@@H](C(=O)N(Cc4ccc(-c5cccs5)cc4)C4CC4)C3)c2)c1 [Compound 27, (R)—N-Cyclopropyl-1-(3-((1-((3-methoxyphenyl)sulfonamido)-2-methyl-1-oxopropan-2-yl)oxy)phenyl)-N-(4-(thiophen-2-yl)benzyl) piperidine-3-carboxamide]

- IC50 [1, 4]: ≤ 10 µM
- Ki [1, 5]: ≤ 10 µM
SMILES: CC(C)(Oc1cccc(N2CCCC(C(=O)N(Cc3ccc(-c4cccs4)cc3)C3CC3)C2)c1)C(=O)NS(=O)(=O)c1cccc(O)c1 (stereo not drawn) [Compound 24, N-Cyclopropyl-1-(3-((1-((3-hydroxyphenyl)sulfonamido)-2-methyl-1-oxopropan-2-yl)oxy)phenyl)-N-(4-(thiophen-2-yl)benzyl) piperidine-3-carboxamide]
